Experimental data from patent US10766873B2, “Zuclopenthixol hydrochloride derivatives and Ebselen derivatives as ErbB2 inhibitors” (Centre National de la Recherche Scientifique (CNRS), priority 2016, dated 2020).
Where two headings read alike, the source gives them in different places.

Key:
[1] = biological target: T1, FERM/ErbB2 interaction (Ezrin FERM domain / juxtamembrane ErbB2 peptide) (Homo sapiens, UniProt P04626); assay: AlphaScreen competition assay, FERM/ErbB2 interaction; format: binding; details: for Competition assay FERM-ErbB2 interaction Max inhibition, %: 20 h
T1 construct: made in house
From the text: To validate that the Zuclopenthixol hydrochloride (ZU) and its derivatives interact with the juxtamembrane domain of ErbB2, we first analyzed in AlphaScreen® their efficiency to inhibit FERM/ErbB2 interaction in a dose-dependent manner and determined IC50 value. Furthermore, to test the selectivity of those compounds, we tested their ability to disrupt the interaction between the FERM domain and the known ERM binding motif contained in the juxtamembrane region of CD44 as a control.
AlphaScreen® technology was used to assess the interaction between the Ezrin binding motif (EBM) contained in the juxtamembrane portions of ErbB2 or CD44 with the Ezrin FERM domain. For this purpose the Ezrin FERM domain in fusion with Glutathione-S-Transferase (GST) has been coupled to GSH-coated acceptor beads. […] The AlphaScreen® reagents (Glutathione-coated Acceptor beads and streptavidin-coated Donor beads) were obtained from PerkinElmer.
The reaction was performed using white 384-well Optiplates (PerkinElmer, Whalham, Mass., USA) in 20 μl (total reaction volume) in a reaction buffer containing PBS, pH 7.4, 5 mM MgCl2 and 0.02% CHAPS. […] 10 μl of a mix solution containing 20 μg/ml Glutathione-coated Acceptor beads and 20 μg/ml streptavidin-coated Donor beads was then added to the wells and incubation was further proceeded for 40 min or overnight in the dark and at room temperature. Light signal was detected with the EnVision® multilabel plate reader (PerkinElmer). All experiments involving AlphaScreen® beads were performed under subdued lighting.

BT474 = assay: MTT cell proliferation, BT474; format: cell-based, human; details: for EC50: read-out: Cell proliferation at d 3 BT474 EC50
Experimental: (§1) We then analyzed the ability of ZU and EB1 and their derivatives to decrease the ErbB2-dependent cell proliferation.
(§2) SKBR3, BT474, MCF-7, MDA-MB-231 and HBMEC cells were treated with the compounds as indicated, and cell proliferation was determined each day during 3 days using an MTT assay. Non treated cells were included as a negative control.
(§3) A solution of ZU in cis conformation was mixed to a solution of ZU in trans conformation (1:1) to obtain ZU in a 50/50 cis/trans conformation and their respective effects on ErbB2 activation and ErbB2-dependent cell proliferation were analyzed as previously by dot blot analysis using an anti-phosphotyrosine antibody (clone 4G10) and by MTT assays in the ErbB2-overexpressing breast cancer cell line SKBR3, BT474, or HBMEC as a control.

ErbB2 = ErbB2 (Homo sapiens, UniProt P04626); assay: ErbB2 phosphorylation in SKBR3 cells, dot blot (4G10); format: cell-based; parameters: endogenous in cells; host or cells: SKBR3; details: for Emax: SK-BR-3, read-out: ErbB2 activation 24 h Max inhibition, %; for effect on ErbB2 phosphorylation/activation (in words): SKBR3
Experimental: The ability of ZU and EB1 and their derivatives to inhibit ErbB2 activity in cellulo on a commonly used ErbB2-overexpressing breast cancer cell line SKBR3 was analyzed. SKBR3 were treated 24 h with increasing concentrations of the compounds (0.625-80 μM) and ErbB2 phosphorylation was addressed by dot blot analysis using an anti-phosphotyrosine antibody (clone 4G10). Quantifications show the result of two independent experiments.

HBMEC = assay: MTT cell proliferation, HBMEC control cells; format: cell-based, human
Experimental: as §1, §2
The WT, V777L or V842I ErbB2-transfected cells were treated with 5 or 10 μM of ZU and cell proliferation was determined each day during 3 days using an MTT assay. Non transfected cells were included as a negative control.
The WT, V777L or V842I ErbB2-transfected cells were treated with 5 or 10 μM of EB1 and cell proliferation was determined each day during 3 days using an MTT assay. Non transfected cells were included as a negative control.

SKBR3 = assay: MTT cell proliferation, SKBR3; format: cell-based, human; details: for EC50: read-out: Cell proliferation at d 3 SKBR3 EC50
Experimental: as §1, §2, §3

[2] = test system: EGFR/ErBB2 or ErbB3/ErbB2 heterodimers-dependent signalling pathways; assay: Ligand-dependent ErbB2 activation (EGF or HRG) in HBMECs, western blot; format: cell-based; details: pre-treatment 1 h or 24 h
Experimental: In physiological conditions, ErbB2 activation occurs in heterodimer with the other ErbB family members, such as the EGFR in response to EGF stimulation or ErbB3 in response to heregulin (HRG) stimulation. We therefore addressed whether ZU, EB1 and their derivatives also affected the ligand-dependent physiological ErbB2 activation.
16 h-starved HBMECs cells were pre-treated or not for 1 h or 24 h with ZU, […] and their derivatives or AG1478 before EGF (50 ng/mL) or HRG1β (100 ng/mL) stimulation for 5 minutes. The activation of EGFR/ErBB2 or ErbB3/ErbB2 heterodimers-dependent signalling pathways was then analysed by western blot experiments using pAkt, Akt, pERK, ERK or 4G10 antibodies.

[3] = SKBR3, 24 h, read-out: ErbB2 activation 24 h EC50
[4] = Homo sapiens, BT-474, 72 h, day 3
[5] = SKBR3, 24 h, read-out: IC50 ErbB2 phosphorylation
[6] = Homo sapiens, 72 h, day 3, read-out: Cell proliferation at d 3 HBMEC EC50
[7] = Homo sapiens, SK-BR-3, 72 h, day 3
[8] = Homo sapiens, 72 h, read-out: Cell proliferation at d 3 HBMEC EC50, μM

| Molecule | inhibition of FERM/ErbB2 interaction (in words) [1] | Competition assay FERM-ErbB2 interaction Max inhibition, % [1] | Cell proliferation at d 3 BT474 Max inhibition, % (BT474; day 3) | EC50 (ErbB2; [3]) | Cell proliferation at d 3 HBMEC Max inhibition, % (HBMEC; day 3) | Cell proliferation at d 3 SKBR3 Max inhibition, % (SKBR3; day 3) | EC50 (BT474; [4]) | Emax (ErbB2; SKBR3, 24 h, 0.625-80 μM) | EC50 (SKBR3; [7]) | other results |
| --- | --- | --- | --- | --- | --- | --- | --- | --- | --- | --- |
| 9-(3-(4-(2-hydroxyethyl)piperazinyl)propylidene)-thioxanthene [ZU3] | inhibited FERM/ErbB2 interaction in a specific and dose-dependent manner | 28% | 31.5% | 32.4 µM | 0% | 32.6% |  |  |  | reduction of BT474 proliferation (BT474; 20 μM): 30%; EC50 (BT474; day 3): 4.2 µM; ErbB2 activation 24 h Max inhibition, % (ErbB2; SKBR3, 24 h, 0.625-80 μM): 75.12%; effect on HBMEC proliferation (in words) (HBMEC; 20 μM): without any effect; reduction of SKBR3 proliferation (SKBR3; 20 μM): 30%; EC50 (SKBR3; day 3): 15.5 µM |
| OCCN1CCN(CC/C=C2\c3ccccc3Sc3ccc(Cl)cc32)CC1 (single isomer, unassigned) [trans isomer] |  |  |  |  |  |  |  |  |  | effect on BT474 proliferation (in words) (BT474; 10 μM): no significant inhibitory effect; effect on SKBR3 proliferation (in words) (SKBR3; 10 μM): no significant inhibitory effect |
| COc1cc2ncnc(Nc3cccc(Cl)c3)c2cc1OC [AG1478] |  |  |  |  |  |  |  |  |  | ligand-dependent ErbB2 activation induced by EGF or HRG stimulation (in words) [2]: strongly blocked |
| Cc1ccc(-n2sc3ccccc3c2=O)cc1 [EB2] |  |  | 20% | 18.2 µM | 29.5% | 34.1% | 11.7 µM | 43.8% | 9.3 µM | IC50 (ErbB2; [5]): 18 to 20 µM; effect on HBMEC proliferation (in words) (HBMEC; 5 μM): without any effect; EC50 (HBMEC; [6]): 11.5 µM; effect on SKBR3 proliferation (in words) (SKBR3; 5 μM): did not significantly decreased |
| O=c1c2ccccc2sn1-c1ccc(Cl)cc1 [EB3] |  |  | 82.7% | 19.5 µM | 75.1% | 63.5% | 6.9 µM | 66.4% | 8.9 µM | reduction of BT474 proliferation (BT474; 7 μM, day 2): 30%; IC50 (ErbB2; [5]): 18 to 20 µM; effect on HBMEC proliferation (in words) (HBMEC; 7 μM): without any effect; EC50 (HBMEC; [6]): 2770 µM; effect on SKBR3 proliferation (in words) (SKBR3; 7 μM): did not significantly decreased |
| O=c1c2ccccc2[se]n1-c1ccccc1 [EBa, reference compound] |  |  |  | 40.7 µM |  |  |  | 15.6% |  | ligand-dependent ErbB2 activation induced by EGF or HRG stimulation (in words) [2]: did not block; reduction of ErbB2 phosphorylation (ErbB2; SKBR3, concentration of 10 μM): 15% |
| CN1CCN(CC/C=C2/c3ccccc3Sc3ccc(S(=O)(=O)N(C)C)cc32)CC1 [ZU2] | inhibited FERM/ErbB2 interaction in a specific and dose-dependent manner | 16% |  | 31.6 µM |  |  |  | 74.2% |  | IC50 (ErbB2; [5]): 5 to 35 µM |
| CCOC(=O)C1CCN(CCC=C2c3ccccc3Sc3ccccc32)CC1 [ZU4, 9-(3-(4-(ethylacetate)piperidine)propylidene)-thioxanthene] | inhibited FERM/ErbB2 interaction in a specific and dose-dependent manner | 36% |  | 47.9 µM |  |  |  | 27.5% |  | effect on ErbB2 phosphorylation/activation (in words) (ErbB2): lower decrease |
| CC(=O)OCCN1CCN(CC/C=C2/c3ccccc3Sc3ccc(Cl)cc32)CC1 [ZU5, (Z)-2-(4-(3-(2-chloro-9H-thioxanthen-9-ylidene)propyl)piperazin-1-yl)ethylacetate] | inhibited FERM/ErbB2 interaction in a specific and dose-dependent manner | 41% | 30.8% | 43.6 µM | 24.5% | 28.2% | 17.8 µM | 97.5% | 3.5 µM | reduction of BT474 proliferation (BT474; 1 and 5 μM, day 3): 33%; IC50 (ErbB2; [5]): 5 to 35 µM; effect on HBMEC proliferation (in words) (HBMEC; 1 and 5 μM): without any effect; EC50 (HBMEC; [8]): 21.9 µM; reduction of SKBR3 proliferation (SKBR3; 1 and 5 μM, day 3): 60% |
| CCOC(=O)C1CCN(CCC=C2c3ccccc3Oc3ccccc32)CC1 [ZU6, ethyl 1-(3-(9H-xanthen-9-ylidene)propyl)piperidine-4-carboxylate] |  |  |  | 35.5 µM |  |  |  | 36.2% |  | effect on ErbB2 phosphorylation/activation (in words) (ErbB2): lower decrease |
| NCCN1CCN(CC/C=C2/c3ccccc3Sc3ccc(C(F)(F)F)cc32)CC1 [ZUc, (Z)-2-(4-(3-(2-(trifluoromethyl)-9H-thioxanthen-9-ylidene)propyl)piperazin-1-yl) Ethanamine] |  | 45% | 94.9% |  | 68.8% | 78.9% | 0.23 µM | 90.8% | 0.34 µM | EC50 (ErbB2): 5.13 µM; IC50 (ErbB2): 5 to 35 µM; toxicity on control cells (in words) (HBMEC): non-specific toxic effects; EC50 (HBMEC; [8]): 0.14 µM |
| FCCN1CCN(CC/C=C2/c3ccccc3Sc3ccc(C(F)(F)F)cc32)CC1 [ZUd, (Z)-1-(2-fluoroethyl)-4-(3-(2-(trifluoromethyl)-9H-thioxanthen-9-ylidene)propyl) Piperazine] |  | 54% | 86% |  |  | 86.4% | 16.5 µM | 51.4% | 6.7 µM | reduction of BT474 proliferation (BT474; 20 μM, day 3): 86%; EC50 (ErbB2): 20.4 µM; IC50 (ErbB2): 5 to 35 µM; toxicity on control cells (in words) (HBMEC): non-specific toxic effects; EC50 (HBMEC; [8]): 16.3 µM; inhibition at 20 µM (HBMEC; Homo sapiens, 72 h, 20 μM, day 3): 90%; reduction of SKBR3 proliferation (SKBR3; 20 μM, day 3): 86% |
| O=C(O)C1CCN(CCC=C2c3ccccc3Oc3ccccc32)CC1 [ZUe, 1-(3-(9H-xanthen-9-ylidene)propyl)piperidine-4-carboxylic acid] |  |  |  |  |  |  |  | 0% |  | effect on ErbB2 phosphorylation/activation (in words) (ErbB2): no effect |
| O=C(O)C1CCN(CCC=C2c3ccccc3Sc3ccccc32)CC1 [ZUf, 1-(3-(9H-thioxanthen-9-ylidene)propyl)piperidine-4-carboxylic acid] |  | 11% |  |  |  |  |  | 0% |  | effect on ErbB2 phosphorylation/activation (in words) (ErbB2): no effect |
| CS(=O)(=O)CCNCc1ccc(-c2ccc3ncnc(Nc4ccc(OCc5cccc(F)c5)c(Cl)c4)c3c2)o1 [lapatinib, reference compound] | did not inhibit |  |  |  |  |  |  |  |  |  |
